Data taken from patent publication US20240287082A1, “NEW BENZODIAZEPINE DERIVATIVES AS GABA A GAMMA1 PAM” (Hoffmann-La Roche Inc., priority 2021, published 2024).
pKi: −log10 of the molar value. Read-outs that look alike come from different tables or passages of the source.

Legend:
[1] = target: human GABAA α1β3γ2 receptor (Homo sapiens (Human), UniProt P14867+P18507); test: Radioligand binding assay, competition for [3H]Flumazenil, γ2-containing GABAA subtype α1β3γ2
Method: The affinity of compounds at GABAA γ2 subunit-containing receptors was measured by competition for [^3H]Flumazenil (81.1 Ci/mmol; Roche) binding to HEK293F cells expressing human (transiently transfected) receptors of composition α1β3γ2.
Harvested pellets from HEK293F cells expressing the different GABAA γ2 receptor subtypes were resuspended in Mannitol Buffer pH 7.2-7.4 and processed as described above for the cells expressing the GABAA γ1 subunit-containing receptors.
Assays were incubated to equilibrium for 1 hour at 4° C. and harvested onto GF/C uni-filters (Packard) by filtration using a Packard harvester and washing with ice-cold wash buffer (50 mM Tris; pH 7.5). After anhydrousing, filter-retained radioactivity was detected by liquid scintillation counting. Ki values were calculated using Excel-Fit (Microsoft) and are the means of two determinations.

[2] = target: human GABAA α2β2γ1 receptor (Homo sapiens (Human), UniProt P47869+Q8N1C3); test: Radioligand binding assay, competition for [3H]RO7239181, γ1-containing GABAA subtype α2β2γ1; details: for γ2/γ1 Selectivity Ratio: Ki α1β3γ2 (nM)/Ki α2β2γ1 (nM); for LogSel: Log[Ki α1β3γ2 (nM)/Ki α2β2γ1 (nM)]
Method: (§1) The affinity of compounds at GABAA γ1 subunit-containing receptors was measured by competition for [^3H]RO7239181 (67.3 Ci/mmol; Roche) binding to membranes from HEK293F cells (ThermoFisher R^79007) expressing human (transiently transfected) receptors of composition α5β2γ1, α2β2γ1, α1β2γ1.
(§2) Harvested pellets from HEK293F cells expressing the different GABAA receptor subtypes were resuspended in Mannitol Buffer pH 7.2-7.4 (Mannitol 0.29M, Triethylamine 10 mM, Acetic acid 10 mM, EDTA 1 mM plus protease inhibitors (20 tablets Complete, Roche Diagnostics Cat. No. 05 056 489 001 per liter)), washed two times and then resuspended at 1:10 to 1:15 dilution in the same buffer. Cell disruption was performed by stirring the suspension in a Parr vessel #4637 at 435 psi for 15 minutes, and then the suspensions were centrifuged at 1000×g for 15 minutes at 4° C. (Beckman Avanti J-HC: rotor JS-4.2). The supernatant (S1) was transferred in a 21 Schott flask and the pellet (P1) was resuspended with Mannitol Buffer up to 175 ml. The resuspended pellet was transferred into a 250 ml Corning centrifugal beaker and centrifuged at 1500×g for 10 minutes at 4° C. (Beckman Avanti J-HC: rotor JS-4.2). The supernatant (S1) was then transferred in the 21 Schott flask and the pellet was discarded. The supernatants (S1) were centrifuged in 500 ml Beckman polypropylene centrifugal beaker at 15 000×g for 30 minutes at 4° C. (Beckman Avanti J-20 XP: rotor JLA-10.500). The pellet (P2) was resuspended with Mannitol Buffer 1:1 and frozen at −80° C. The supernatant (S2) was centrifuged in 100 ml Beckman polypropylene centrifugal tubes at 48000×g for 50 minutes at 4° C. (Beckman Avanti J-20 XP: rotor JA-18). The supernatant (S3) was discarded and the pellet (P3) was resuspended with 1:1 Mannitol Buffer. The P2 and P3 protein concentration was determined with the BIORAD Standard assay method with bovine serum albumin as standard and measured on the NANO-Drop 1000. The membrane suspension was aliquots (500 μl per tube) and stored at −80° C. until required.
(§3) Membrane homogenates were resuspended and polytronised (Polytron PT1200E Kinematica AG) in Potassium Phosphate 10 mM, KCl 100 mM binding buffer at pH 7.4 to a final assay concentration determined with a previous experiment.
(§4) Assays were incubated to equilibrium for 1 hour at 4° C. and then, membranes were filtered onto unifilter (96-well white microplate with bonded GF/C filters preincubated 20-50 minutes in 0.3% Polyethylenimine) with a Filtermate 196 harvester (Packard BioScience) and washed 4 times with cold Potassium Phosphate 10 mM pH 7.4, KCl 100 mM binding buffer. After anhydrousing, filter-retained radioactivity was detected by liquid scintillation counting. Ki values were calculated using Excel-Fit (Microsoft) and are the means of two determinations.

[3] = target: human GABAA α5β2γ1 receptor (Homo sapiens (Human), UniProt P31644+Q8N1C3); test: Radioligand binding assay, competition for [3H]RO7239181, γ1-containing GABAA subtype α5β2γ1
Method: as §1, with “α1β2γ1. For better protein expression of the α2 subunit-containing receptors, the 28 amino acid long signal peptide (Met1 to Ala28)of the human GABAA α2 subunit was substituted by the 31 amino acid long signal peptide (Met1 to Ser31) of human GABAA α5 subunit.” for “α1β2γ1.”
as §2, §3
as §4, with “Radioligand binding assays were carried out in a volume of 200 μL (96-well plates) which contained 100 μL of cell membranes, [3H]RO7239181 at a concentration of 1.5 nM (α5β2γ1) or 20-30 nM (α1β2γ1, α2β2γ1) and the test compound in the range of [0.3-1000]×10^−9 M. Nonspecific binding was defined by 10×10^−6 (α5β2γ1) and 30×10^−6 M RO7239181 and typically represented less than 5% (α5β2γ1) and less than 20% (α1β2γ1, α2β2γ1) of the total binding. Assays” for “Assays”

h-GABA-A α2β2γ1 = h-GABA-A α2β2γ1 (Homo sapiens (Human), UniProt P47869+Q8N1C3); test: Two-electrode voltage clamp electrophysiology in Xenopus oocytes expressing GABAA receptors, modulation of GABA EC20 current; format: cell-based; details: for Efficacy (GABA) %: % modulation of GABA EC20 = 100*(Fold increase−1), compound at 30-fold Ki α2β2γ1; for Fold increase h-GABA-A α2β2γ1 oocyte @ 30-fold Ki: Xenopus oocytes, GABA EC20, test compound at approx. 30-fold its Ki α2β2γ1; for potentiation of the GABA-induced current: α2β2γ1 GABAA receptor subtype expressing oocytes, reference PAMs
Method: Xenopus laevis oocytes at maturation stages V-VI were used for the expression of cloned mRNA encoding GABAA receptor subunits. Oocytes ready for RNA micro-injection were bought from Ecocyte, Castrop-Rauxel, Germany and stored in modified Barth's medium (composition in mM: NaCl 88, KCl 1, NaHCO3 2.4, HEPES 10, MgSO4 0.82, CaNO3 0.33, CaCl2 0.33, pH=7.5) at 20° C. until the experiment.
Oocytes were plated in 96-well plates for microinjection using the Roboinject automated instrument (MultiChannelSystems, Reutlingen, Germany). Approximately 50 nL of an aqueous solution containing the RNA transcripts for the subunits of the desired GABAA receptor subtype was injected into each oocyte. […] Oocytes were kept in modified Barth's medium (composition in mM: NaCl 88, KCl 1, NaHCO3 […], HEPES 10, MgSO4 0.82, CaNO3 0.33, CaCl2 0.33, pH=7.5) at 20° C. until the experiment.
Electrophysiological experiments were performed using the Roboocyte instrument (MultiChannelSystems, Reutlingen, Germany) on days 3 to 5 after the micro-injection of mRNA. During the experiment the oocytes were constantly superfused by a solution containing (in mM) NaCl 90, KCl 1, HEPES 5, MgCl2 1, CaCl2 1 (pH 7.4). Oocytes were impaled by two glass microelectrodes (resistance: 0.5-0.8 MΩ) which were filled with a solution containing KCl 1M+K-acetate 1.5 M and voltage-clamped to −80 mV. The recordings were performed at room temperature using the Roboocyte two-electrode voltage clamp system (Multichannelsystem). After an initial equilibration period of 1.5 min GABA was added for 1.5 min at a concentration evoking approximately 20% of a maximal current response (EC20). After another rest interval of 2.5 min GABA was again added evoking a response of similar amplitude and shape. […] Current traces were recorded at a digitization rate of 10 Hz during and shortly before and after the GABA application.
Each compound and concentration was tested on at least 3 oocytes. Different oocytes were used for different compound concentrations.
For the analysis, the digitized current traces of the first and second GABA response were superimposed and, if necessary, rescaled to equal maximal amplitudes. The ratio between the two responses during the time interval of test compound application was calculated point by point. The extremum of the resulting “ratio trace” was taken as the efficacy (“Fold increase”) of the compound expressed as “% modulation of GABA EC20” (100*(Fold increase−1)).

[4] = read-out: Ki h-GABAA α2β2γ1, Table 2, membranes of HEK293F cells, [3H]RO7239181

Row | SMILES | pKi [1] | pKi [2] | γ2/γ1 Selectivity Ratio ([2]; Table 3) | LogSel ([2]; Table 3) | pKi [3] | γ2/γ1 Selectivity Ratio [2] | LogSel [2] | pKi [2, 4] | Efficacy (GABA) % (h-GABA-A α2β2γ1) | Fold increase h-GABA-A α2β2γ1 oocyte @ 30-fold Ki (h-GABA-A α2β2γ1) | potentiation of the GABA-induced current (h-GABA-A α2β2γ1)
1 | O=c1ccn2c(n1)CN=C(c1ccccc1F)c1cc(Cl)ccc1-2 [RE-A, 9-chloro-7-(2-fluorophenyl)-5H-pyrimido[1,2-a][1,4]benzodiazepin-3-one, reference compound] | 7.56 | 6.91 | 0.23 | −0.64 | – | – | – | – | – | – | –
2 | CCc1cn2c(nc1=O)[C@H](C)N=C(c1c(F)cccc1F)c1c-2ccc(Cl)c1Cl [Example 14, (5S)-8,9-dichloro-7-(2,6-difluorophenyl)-2-ethyl-5-methyl-5H-pyrimido[1,2-a][1,4]benzodiazepine-3-one] | 6.04 | 7.81 | – | – | 8.64 | 58.4 | 1.77 | 7.81 | 66% | 1.66 | –
3 | Cc1cn2c(nc1=O)[C@H](C)N=C(c1c(F)cccc1F)c1c-2ccc(Cl)c1Cl [Example 7, (5S)-8,9-dichloro-7-(2,6-difluorophenyl)-2,5-dimethyl-5H-pyrimido[1,2-a][1,4]benzodiazepin-3-one] | 6.16 | 7.95 | – | – | 8.85 | 61.2 | 1.79 | 7.95 | 53% | 1.53 | –
4 | CN1C(=O)CN=C(c2ccccc2F)c2cc([N+](=O)[O-])ccc21 [Flunitrazepam, reference compound] | – | – | – | – | – | – | – | – | – | – | ~60%
5 | Cc1nnc2n1-c1ccc(Cl)cc1C(c1ccccc1)=NC2 [Alprazolam, reference compound] | – | – | – | −2.3 | – | – | – | – | – | – | –
6 | Cc1ncc2n1-c1ccc(Cl)cc1C(c1ccccc1F)=NC2 [Midazolam, reference compound] | – | – | – | −2.2 | – | – | – | – | – | – | ~60%
7 | C[C@@H]1N=C(c2c(F)cccc2F)c2c(ccc(Cl)c2Br)-n2ccc(=O)nc21 [Example 6, (5S)-8-bromo-9-chloro-7-(2,6-difluorophenyl)-5-methyl-5H-pyrimido[1,2-a][1,4]benzodiazepin-3-one] | 5.75 | 7.30 | – | – | 8.32 | 35.7 | 1.55 | 7.30 | 121% | 2.21 | –
8 | Cc1nnc2n1-c1ccc(Cl)cc1C(c1ccccc1Cl)=NC2 [Triazolam, reference compound] | – | – | – | −1.5 | – | – | – | – | – | – | ~60%
9 | Cc1ccc2c(c1Cl)C(c1c(F)cccc1F)=N[C@@H](C)c1nc(=O)c(C)cn1-2 [Example 8, (5S)-8-chloro-7-(2,6-difluorophenyl)-2,5,9-trimethyl-5H-pyrimido[1,2-a][1,4]benzodiazepin-3-one] | 5.91 | 7.42 | – | – | 8.70 | 32.7 | 1.51 | 7.42 | 115% | 2.15 | –
10 | O=c1ccn2c(n1)CN=C(c1c(F)cccc1F)c1c-2ccc(Cl)c1Br [Example 17, 8-bromo-9-chloro-7-(2,6-difluorophenyl)-5H-pyrimido[1,2-a][1,4]benzodiazepin-3-one] | 6.29 | 7.86 | – | – | 9.00 | 36.9 | 1.57 | 7.86 | 79% | 1.79 | –
11 | O=c1nc2n(cc1Br)-c1ccc(Br)c(Cl)c1C(c1c(F)cccc1F)=NC2 [Example 15, 2,9-dibromo-8-chloro-7-(2,6-difluorophenyl)-5H-pyrimido[1,2-a][1,4]benzodiazepin-3-one] | 5.71 | 8.10 | – | – | 9.10 | 244.8 | 2.39 | 8.10 | 69% | 1.69 | –
